According to ChEMBL document CHEMBL1201862, “PubChem BioAssay data set” (2004):
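Results reflect a 48-hour exposure of cells in 96-well plates to compound at five concentrations. The concentration for 50% growth inhibition is given as GI50.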 Activity calls are given as the source filed them. Rule as the data show it: active = GI50 up to about 1.1 µM and inactive = higher.

Experiments:
Experiment in all cases: DTP human tumour cell line panel, 48 h
MDA-N = system: MDA-N
NCI/ADR-RES = system: NCI/ADR-RES
NCI-H226 = system: NCI-H226
SNB-75 = system: SNB-75
RPMI-8226 = system: RPMI-8226
A549 = system: A549
HOP-62 = system: HOP-62
SNB-19 = system: SNB-19
M14 = system: M14
BT-549 = system: BT-549
DU-145 = system: DU-145
SF-295 = system: SF-295
NCI-H460 = system: NCI-H460
Hs-578T = system: Hs-578T
786-0 = system: 786-0
EKVX = system: EKVX
MDA-MB-435 = system: MDA-MB-435
MDA-MB-231 = system: MDA-MB-231
T47D = system: T47D
CCRF-CEM = system: CCRF-CEM

Structure (SMILES) | GI50 (MDA-N) | GI50 (NCI/ADR-RES) | GI50 (NCI-H226) | GI50 (SNB-75) | GI50 (RPMI-8226) | GI50 (A549) | GI50 (HOP-62) | GI50 (SNB-19) | GI50 (M14) | GI50 (BT-549) | GI50 (DU-145) | GI50 (SF-295) | GI50 (NCI-H460) | GI50 (Hs-578T) | GI50 (786-0) | GI50 (EKVX) | GI50 (MDA-MB-435) | GI50 (MDA-MB-231) | GI50 (T47D) | GI50 (CCRF-CEM)
CC(C)(C)OC(=O)NC(Cc1ccccc1)NC(=O)NC(=O)OCc1ccccc1 (configuration not stated) | 64 µM (inactive) | 55.7 µM (inactive) | 28.3 µM (inactive) | 32.8 µM (inactive) | > 100 µM (inactive) | 70.8 µM (inactive) | 31.3 µM (inactive) | 36.5 µM (inactive) | 57.7 µM (inactive) | 54.5 µM (inactive) | 87.1 µM (inactive) | 36.6 µM (inactive) | 63.7 µM (inactive) | 44 µM (inactive) | 34.4 µM (inactive) | > 100 µM (inactive) | > 100 µM (inactive) | – | – | –
CCN(C(=S)N[C@@H](Cc1ccccc1)C(=O)N[C@@H](CC(C)C)C(=O)OC)c1ccccc1 | > 100 µM (inactive) | > 100 µM (inactive) | > 100 µM (inactive) | > 100 µM (inactive) | 75.9 µM (inactive) | 78.2 µM (inactive) | > 100 µM (inactive) | 49.2 µM (inactive) | > 100 µM (inactive) | 69 µM (inactive) | > 100 µM (inactive) | > 100 µM (inactive) | 58.2 µM (inactive) | – | > 100 µM (inactive) | > 100 µM (inactive) | > 100 µM (inactive) | > 100 µM (inactive) | > 100 µM (inactive) | 33.5 µM (inactive)
O=C(NNc1cn[nH]c(=O)c1Cl)/C(=C/c1ccc2c(c1)OCO2)NC(=O)c1ccccc1 | 44.7 µM (inactive) | 35.6 µM (inactive) | 21.9 µM (inactive) | 24.9 µM (inactive) | – | > 100 µM (inactive) | 57.1 µM (inactive) | 76.2 µM (inactive) | 61.8 µM (inactive) | 18.5 µM (inactive) | 92 µM (inactive) | 71.3 µM (inactive) | 35.6 µM (inactive) | – | 38.5 µM (inactive) | 19.1 µM (inactive) | 79.4 µM (inactive) | > 100 µM (inactive) | 73.5 µM (inactive) | –
CC1(C)O[C@@H](CP(c2cccc3ccccc23)c2cccc3ccccc23)[C@H](CP(c2cccc3ccccc23)c2cccc3ccccc23)O1 | > 100 µM (inactive) | > 100 µM (inactive) | > 100 µM (inactive) | > 100 µM (inactive) | – | > 100 µM (inactive) | > 100 µM (inactive) | > 100 µM (inactive) | > 100 µM (inactive) | > 100 µM (inactive) | > 100 µM (inactive) | > 100 µM (inactive) | > 100 µM (inactive) | – | > 100 µM (inactive) | > 100 µM (inactive) | > 100 µM (inactive) | > 100 µM (inactive) | > 100 µM (inactive) | > 100 µM (inactive)
CC1(C)OC1CC/C(=C/CBr)CBr (configuration not stated) | 15.3 µM (inactive) | 18.8 µM (inactive) | 21.7 µM (inactive) | 6.82 µM (inactive) | 12.9 µM (inactive) | 21.3 µM (inactive) | 17.3 µM (inactive) | 15.2 µM (inactive) | 19.8 µM (inactive) | 16.7 µM (inactive) | 20.9 µM (inactive) | 14.1 µM (inactive) | 15 µM (inactive) | 17.5 µM (inactive) | 15.4 µM (inactive) | 18.1 µM (inactive) | 17.8 µM (inactive) | 15.7 µM (inactive) | – | 8.17 µM (inactive)
CN(C)C1(N(C)C)Oc2c(c(=O)n(C)c(=O)n2C)C(c2ccc(F)cc2)C1(F)F (configuration not stated) | – | > 100 µM (inactive) | > 100 µM (inactive) | > 100 µM (inactive) | > 100 µM (inactive) | > 100 µM (inactive) | > 100 µM (inactive) | > 100 µM (inactive) | > 100 µM (inactive) | > 100 µM (inactive) | > 100 µM (inactive) | > 100 µM (inactive) | > 100 µM (inactive) | – | > 100 µM (inactive) | > 100 µM (inactive) | > 100 µM (inactive) | > 100 µM (inactive) | > 100 µM (inactive) | > 100 µM (inactive)
COc1cccc(NC(=O)c2c(SC)c(C#N)c(=O)n(N)c2N)c1 | > 100 µM (inactive) | 43 µM (inactive) | > 100 µM (inactive) | 1.46 µM (inactive) | – | 57.7 µM (inactive) | 50.9 µM (inactive) | 4.52 µM (inactive) | 30.6 µM (inactive) | 61.8 µM (inactive) | – | 34.2 µM (inactive) | 67.1 µM (inactive) | 41.1 µM (inactive) | 28.6 µM (inactive) | > 100 µM (inactive) | 97.5 µM (inactive) | 95.7 µM (inactive) | – | 35.2 µM (inactive)
CCC(=O)O[C@H]1CC[C@H]2[C@@H]3CCC4=CC(=O)C=C[C@]4(O)[C@H]3CC[C@]12C | 2.95 µM (inactive) | 37 µM (inactive) | > 100 µM (inactive) | – | 8.55 µM (inactive) | 16.1 µM (inactive) | 29.4 µM (inactive) | 28.4 µM (inactive) | 22.5 µM (inactive) | 20.5 µM (inactive) | 22.8 µM (inactive) | 26.1 µM (inactive) | 16.3 µM (inactive) | 39.5 µM (inactive) | 33.7 µM (inactive) | 25.9 µM (inactive) | 3.11 µM (inactive) | 22.7 µM (inactive) | – | 4.09 µM (inactive)
Cc1ccc(S(=O)(=O)Nn2c(S)c(C#N)c(-c3ccc(N(C)C)cc3)c(C#N)c2=O)cc1 | > 100 µM (inactive) | 32 µM (inactive) | 2.16 µM (inactive) | 35.2 µM (inactive) | 15.6 µM (inactive) | 40.5 µM (inactive) | – | 43 µM (inactive) | 31.2 µM (inactive) | 22.2 µM (inactive) | 40.6 µM (inactive) | 34.2 µM (inactive) | 15.2 µM (inactive) | – | 28.6 µM (inactive) | 23.6 µM (inactive) | 19.6 µM (inactive) | > 100 µM (inactive) | – | 5.57 µM (inactive)
CCCCCCCCCC[C@@H](O)[C@@H]1CC[C@@H]([C@@H]2CC[C@@H]([C@@H](O)CCCCCCCCCC[C@H](O)CC3=CC(C)OC3=O)O2)O1 (some centres not stated) | – | 0.256 µM (active) | 1.29 µM (inactive) | 3.33 µM (inactive) | 1.26 µM (inactive) | 1.73 µM (inactive) | 2.99 µM (inactive) | 4.6 µM (inactive) | 3.71 µM (inactive) | 4.23 µM (inactive) | 8.95 µM (inactive) | 1.71 µM (inactive) | 0.895 µM (active) | 4.04 µM (inactive) | 3.74 µM (inactive) | 1.61 µM (inactive) | 1.09 µM (active) | – | 2.63 µM (inactive) | 1.5 µM (inactive)
CO[C@@H]1C[C@H]2N3CC[C@@]2(c2cc4c(cc2C3)OCO4)[C@H]2O[C@@H]12 | > 100 µM (inactive) | > 100 µM (inactive) | 1.34 µM (inactive) | > 100 µM (inactive) | > 100 µM (inactive) | > 100 µM (inactive) | > 100 µM (inactive) | > 100 µM (inactive) | > 100 µM (inactive) | > 100 µM (inactive) | > 100 µM (inactive) | > 100 µM (inactive) | > 100 µM (inactive) | > 100 µM (inactive) | > 100 µM (inactive) | > 100 µM (inactive) | > 100 µM (inactive) | > 100 µM (inactive) | – | > 100 µM (inactive)
